# Key:
# Assay type in all cases: cell-based
# [1] = system: Human Multiple myeloma cell line (MM.1S); experiment: Inhibition of MM.1S cell proliferation (CellTiter luminescent viability); conditions: Homo sapiens, MM1.S, Table IL1, BCR-ABL inhibitor-based, 96 hours; for inhibition at 0.01 µM: 10 nM, read-out: Inhibition Rate at 10 nM (%); for inhibition at 0.5 µM: 500 nM, read-out: Inhibition Rate at 500 nM (%)
# Method in brief: (§1)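 Cells are seeded in 96-well plates, cultured at 37 °C, 5% CO2, and treated next day with 5-fold serial compound dilutions (stock series from 2000 μM; 0.5 μL into 100 μL medium). Viability is read by CellTiter-Meiluncell luminescence after the set exposure, and IC50 is taken from growth-inhibition curves.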
# [2] = system: Human acute lymphocytic leukemia T lymphocytes cell line (CCRF-CEM); experiment: Inhibition of CCRF-CEM cell proliferation (CellTiter luminescent viability); conditions: Homo sapiens, 96 h, Table IL3, BCR-ABL inhibitor-based; for inhibition at 0.01 µM: 10 nM, read-out: Inhibition Rate at 10 nM (%); for inhibition at 0.5 µM: 500 nM, read-out: Inhibition Rate at 500 nM (%)
# C-ABL = biological target: T1, C-ABL (Homo sapiens, UniProt P00519); experiment: Western blot degradation of C-ABL; conditions: K562 Cell; 24 hours
# T1 construct: K562 also holds p210 BCR-ABL (BCR P11274 fused to ABL1)
# T1 sequence (P00519 whole entry, the tested form may be a part): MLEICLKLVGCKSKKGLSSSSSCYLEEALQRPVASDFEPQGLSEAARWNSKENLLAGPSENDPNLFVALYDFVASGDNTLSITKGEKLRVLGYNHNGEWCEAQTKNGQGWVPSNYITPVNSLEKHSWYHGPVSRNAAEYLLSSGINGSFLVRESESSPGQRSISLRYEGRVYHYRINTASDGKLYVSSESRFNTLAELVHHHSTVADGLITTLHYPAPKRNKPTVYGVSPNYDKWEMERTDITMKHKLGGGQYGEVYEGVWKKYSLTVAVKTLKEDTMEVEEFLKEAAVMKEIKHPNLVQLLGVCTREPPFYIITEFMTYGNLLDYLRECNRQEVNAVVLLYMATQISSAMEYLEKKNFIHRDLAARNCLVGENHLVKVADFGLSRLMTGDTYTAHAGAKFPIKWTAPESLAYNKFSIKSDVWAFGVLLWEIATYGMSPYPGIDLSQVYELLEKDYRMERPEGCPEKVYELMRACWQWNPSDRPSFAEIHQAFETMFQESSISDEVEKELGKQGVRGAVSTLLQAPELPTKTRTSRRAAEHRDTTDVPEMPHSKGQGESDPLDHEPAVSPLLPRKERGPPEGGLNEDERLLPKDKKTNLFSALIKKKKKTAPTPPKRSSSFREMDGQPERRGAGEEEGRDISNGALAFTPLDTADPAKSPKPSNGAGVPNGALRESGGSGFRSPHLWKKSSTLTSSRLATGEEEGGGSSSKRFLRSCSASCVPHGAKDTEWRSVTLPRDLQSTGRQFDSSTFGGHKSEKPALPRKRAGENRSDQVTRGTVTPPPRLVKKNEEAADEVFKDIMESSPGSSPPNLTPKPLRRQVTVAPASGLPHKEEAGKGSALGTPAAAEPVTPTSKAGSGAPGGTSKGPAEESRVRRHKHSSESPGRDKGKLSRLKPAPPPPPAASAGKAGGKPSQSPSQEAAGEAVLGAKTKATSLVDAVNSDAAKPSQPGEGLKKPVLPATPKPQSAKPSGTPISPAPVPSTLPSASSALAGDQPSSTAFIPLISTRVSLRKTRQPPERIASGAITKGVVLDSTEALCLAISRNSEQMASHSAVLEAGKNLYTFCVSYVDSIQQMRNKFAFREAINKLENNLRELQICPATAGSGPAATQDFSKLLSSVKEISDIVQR
# T1 sequence (Q96SW2 whole entry partner, the tested form may be a part): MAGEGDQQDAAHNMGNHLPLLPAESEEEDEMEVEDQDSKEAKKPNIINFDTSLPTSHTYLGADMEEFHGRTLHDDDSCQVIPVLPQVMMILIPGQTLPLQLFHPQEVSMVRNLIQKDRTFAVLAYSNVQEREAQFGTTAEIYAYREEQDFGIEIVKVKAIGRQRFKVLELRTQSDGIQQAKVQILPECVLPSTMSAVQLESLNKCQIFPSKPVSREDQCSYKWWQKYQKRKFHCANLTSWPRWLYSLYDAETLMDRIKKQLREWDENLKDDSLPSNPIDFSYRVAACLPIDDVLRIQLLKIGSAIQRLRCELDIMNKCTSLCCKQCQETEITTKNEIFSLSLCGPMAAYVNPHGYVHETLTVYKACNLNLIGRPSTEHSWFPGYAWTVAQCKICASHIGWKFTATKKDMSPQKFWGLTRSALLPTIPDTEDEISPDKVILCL
# Method: (§2) Conventional Western blot assay was performed to evaluate the effects of the compounds of the present disclosure on the expression of target proteins in cells.
# (§3) (1) Cell Seeding and Protein Harvesting: The selected cells were processed according to the cell seeding procedure and protein harvesting procedure in Table II-2.
# (§4) (2) To the collected supernatant, 5×SDS sample loading buffer was added, followed by denaturation at 95 °C for 5 minutes. The denatured samples were then separated by SDS-PAGE electrophoresis on a polyacrylamide gel. Proteins were transferred to a nitrocellulose membrane (0.45 μm NC membrane), blocked with blocking buffer at room temperature for 1 hour, and subjected to antibody incubation and development procedures according to the antibody manufacturer's instructions (Cell Signaling Technology).
# (§5) Half-Maximal Degradation Concentration value (the drug concentration required for degrading proteins by 50%, abbreviated as DC50) reads method: comparing the grayscale values of Western blot bands from drug-treated samples with those from blank DMSO-treated controls, and identifying the drug concentration range at which the grayscale value is half that of the DMSO-treated control bands.
# (§6) DC50 values can be calculated using ImageJ software to measure grayscale values of Western blot bands from drug-treated samples. The concentration-response curve is fitted to estimate the drug concentration corresponding to half the grayscale value.
# (§7) Target protein remaining (%) refers to the percentage of target protein remaining in cells after treatment with protein degrader compounds.
# (§8) Calculation method for target protein remaining (%): Use ImageJ software to measure grayscale values of Western blot bands from drug (protein degrader)-treated samples. The grayscale value of drug-treated bands is divided by that of internal control protein bands, and the resulting quotient is normalized to obtain the relative percentage of remaining target protein after protein degrader treatment.
# (§9) Target protein degradation rate (%)=1−target protein remaining (%).
# [3] = system: Human myeloid monocytic leukemia cell line (MV-4-11); experiment: Inhibition of MV-4-11 cell proliferation (CellTiter luminescent viability); conditions: Homo sapiens, MV4-11, Table IL2, BCR-ABL inhibitor-based, 96 hours; for inhibition at 0.01 µM: MV-4-11, 10 nM, read-out: Inhibition Rate at 10 nM (%); for inhibition at 0.5 µM: MV-4-11, 500 nM, read-out: Inhibition Rate at 500 nM (%)
# Method in brief: as §1
# BRM = biological target: T2, BRM (Homo sapiens, UniProt P51531); experiment: Western blot degradation of BRM (SMARCA2); conditions: Molt-4 Cell; 24 hours
# T2 construct: expression of target proteins in cells; endogenous in cells
# T2 sequence (P51531 whole entry): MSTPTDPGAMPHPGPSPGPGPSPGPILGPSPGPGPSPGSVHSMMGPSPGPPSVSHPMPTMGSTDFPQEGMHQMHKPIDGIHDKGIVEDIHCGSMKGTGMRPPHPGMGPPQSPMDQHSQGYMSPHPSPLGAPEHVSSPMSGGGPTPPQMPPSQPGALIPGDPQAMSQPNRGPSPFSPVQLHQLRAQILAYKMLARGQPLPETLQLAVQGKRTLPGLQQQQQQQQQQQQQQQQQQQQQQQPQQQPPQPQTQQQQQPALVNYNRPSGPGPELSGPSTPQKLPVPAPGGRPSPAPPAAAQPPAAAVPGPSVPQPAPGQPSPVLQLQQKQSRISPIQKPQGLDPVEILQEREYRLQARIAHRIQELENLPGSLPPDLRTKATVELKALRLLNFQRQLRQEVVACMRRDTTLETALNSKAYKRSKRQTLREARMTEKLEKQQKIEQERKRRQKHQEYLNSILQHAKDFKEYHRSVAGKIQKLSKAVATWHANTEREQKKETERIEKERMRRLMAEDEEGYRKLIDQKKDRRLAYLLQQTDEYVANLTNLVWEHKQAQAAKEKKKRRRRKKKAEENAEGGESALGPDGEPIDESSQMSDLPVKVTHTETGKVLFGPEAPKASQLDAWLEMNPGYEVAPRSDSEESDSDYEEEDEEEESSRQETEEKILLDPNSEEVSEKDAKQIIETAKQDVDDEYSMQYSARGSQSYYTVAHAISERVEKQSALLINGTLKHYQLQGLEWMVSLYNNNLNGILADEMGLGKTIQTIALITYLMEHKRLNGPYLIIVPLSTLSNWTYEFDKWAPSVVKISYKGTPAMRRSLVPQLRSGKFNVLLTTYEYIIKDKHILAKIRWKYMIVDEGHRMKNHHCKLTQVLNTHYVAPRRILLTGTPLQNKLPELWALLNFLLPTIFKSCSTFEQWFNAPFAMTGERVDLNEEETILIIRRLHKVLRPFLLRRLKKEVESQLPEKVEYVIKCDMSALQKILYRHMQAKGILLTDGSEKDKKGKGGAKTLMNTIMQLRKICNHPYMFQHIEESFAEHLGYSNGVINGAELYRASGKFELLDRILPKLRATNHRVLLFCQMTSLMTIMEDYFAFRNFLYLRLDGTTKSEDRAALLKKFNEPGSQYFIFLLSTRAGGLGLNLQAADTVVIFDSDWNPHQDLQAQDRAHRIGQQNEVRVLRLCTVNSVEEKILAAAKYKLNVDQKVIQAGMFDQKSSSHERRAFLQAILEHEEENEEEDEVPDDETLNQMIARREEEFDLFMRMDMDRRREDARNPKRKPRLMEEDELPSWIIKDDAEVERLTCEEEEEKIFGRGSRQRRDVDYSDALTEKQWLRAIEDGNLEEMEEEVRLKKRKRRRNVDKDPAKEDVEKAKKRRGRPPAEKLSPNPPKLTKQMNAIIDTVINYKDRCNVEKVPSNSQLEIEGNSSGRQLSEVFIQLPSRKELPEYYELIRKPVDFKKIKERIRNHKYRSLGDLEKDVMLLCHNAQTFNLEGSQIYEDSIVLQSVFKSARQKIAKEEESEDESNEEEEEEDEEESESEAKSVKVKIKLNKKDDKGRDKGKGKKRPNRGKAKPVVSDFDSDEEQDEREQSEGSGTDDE
# Method: as §2, §3, §4, §5, §6, §7, §8, §9
# BRG1 = biological target: T3, BRG1 (Homo sapiens, UniProt P51532); experiment: Western blot degradation of BRG1 (SMARCA4); conditions: Molt-4 Cell; 24 hours
# T3 construct: expression of target proteins in cells; endogenous in cells
# T3 sequence (P51532 whole entry): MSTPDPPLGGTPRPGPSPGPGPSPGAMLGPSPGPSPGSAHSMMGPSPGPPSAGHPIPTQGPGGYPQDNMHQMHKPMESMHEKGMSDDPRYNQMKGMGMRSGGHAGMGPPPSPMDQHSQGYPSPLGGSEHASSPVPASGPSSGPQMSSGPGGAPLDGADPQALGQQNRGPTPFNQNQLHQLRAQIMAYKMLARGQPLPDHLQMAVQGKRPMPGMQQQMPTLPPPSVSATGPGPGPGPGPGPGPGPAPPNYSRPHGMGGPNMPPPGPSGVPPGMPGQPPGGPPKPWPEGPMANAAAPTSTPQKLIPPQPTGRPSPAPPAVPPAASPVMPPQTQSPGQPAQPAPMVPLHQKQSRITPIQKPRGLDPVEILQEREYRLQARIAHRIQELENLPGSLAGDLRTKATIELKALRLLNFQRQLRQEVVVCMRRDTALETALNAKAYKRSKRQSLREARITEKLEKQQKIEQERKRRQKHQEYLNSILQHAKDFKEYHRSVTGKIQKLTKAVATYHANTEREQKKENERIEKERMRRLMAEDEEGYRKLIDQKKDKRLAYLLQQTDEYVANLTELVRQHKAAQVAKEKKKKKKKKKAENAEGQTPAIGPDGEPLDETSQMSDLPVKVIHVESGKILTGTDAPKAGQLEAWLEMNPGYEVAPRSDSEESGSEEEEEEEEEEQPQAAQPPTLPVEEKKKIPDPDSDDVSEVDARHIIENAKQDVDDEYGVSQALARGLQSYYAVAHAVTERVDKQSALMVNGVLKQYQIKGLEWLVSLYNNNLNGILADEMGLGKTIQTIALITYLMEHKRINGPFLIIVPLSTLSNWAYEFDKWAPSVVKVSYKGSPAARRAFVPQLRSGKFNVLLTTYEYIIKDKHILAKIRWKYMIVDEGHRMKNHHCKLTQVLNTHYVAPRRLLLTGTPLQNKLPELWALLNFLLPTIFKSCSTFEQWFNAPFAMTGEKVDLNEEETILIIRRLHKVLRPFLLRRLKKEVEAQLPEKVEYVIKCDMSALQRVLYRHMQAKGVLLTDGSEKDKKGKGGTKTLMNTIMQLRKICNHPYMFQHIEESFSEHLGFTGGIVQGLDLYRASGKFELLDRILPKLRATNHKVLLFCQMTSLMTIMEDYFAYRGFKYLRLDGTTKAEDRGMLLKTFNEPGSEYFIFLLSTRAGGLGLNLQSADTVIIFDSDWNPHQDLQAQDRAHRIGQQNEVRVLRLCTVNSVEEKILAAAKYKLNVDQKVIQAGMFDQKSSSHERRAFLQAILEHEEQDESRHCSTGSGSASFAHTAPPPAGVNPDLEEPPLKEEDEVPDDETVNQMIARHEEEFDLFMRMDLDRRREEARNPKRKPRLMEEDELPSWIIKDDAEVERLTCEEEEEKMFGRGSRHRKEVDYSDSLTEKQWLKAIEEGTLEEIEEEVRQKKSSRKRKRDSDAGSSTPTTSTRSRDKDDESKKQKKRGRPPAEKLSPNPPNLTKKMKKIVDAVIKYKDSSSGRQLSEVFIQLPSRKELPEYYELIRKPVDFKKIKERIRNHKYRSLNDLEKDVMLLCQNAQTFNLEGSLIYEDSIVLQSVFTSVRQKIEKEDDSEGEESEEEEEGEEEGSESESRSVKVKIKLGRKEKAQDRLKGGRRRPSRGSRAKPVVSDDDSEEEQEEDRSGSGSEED
# Method: as §2, §3, §4, §5, §6, §7, §8, §9
SMILES,Degradation of substrate protein C-ABL; BCR-ABL (substrate protein remaining %) (C-ABL),Degradation of substrate protein BRM (substrate protein remaining %) (BRM),Degradation of substrate protein BRG1 (substrate protein remaining %) (BRG1),other results
"Cc1ccc(C(=O)Nc2ccc(N3CCC(N(C)Cc4ccc5c(c4)CN(N4CCC(=O)NC4=O)C5=O)CC3)c(C(F)(F)F)c2)cc1C#Cc1cnc2cccnn12 [GT-08220, N-(4-(4-(((2-(2,4-dioxotetrahydropyrimidin-1(2H)-yl)-1-oxoisoindolin-5-yl)methyl)(methyl)amino)piperidin-1-yl)-3-(trifluoromethyl)phenyl)-3-(imidazo[1,2-b]pyridazin-3-ylethynyl)-4-methylbenzamide]",A (0%≤substrate protein remaining %≤80%),–,–,inhibition at 0.01 µM [3]: -5 to 0%; inhibition at 0.5 µM [3]: 80 to 100%
"Cc1ccc(C(=O)Nc2ccc(CN3CCN(CC4CCN(c5ccc6c(c5)C(=O)N(N5CCC(=O)NC5=O)C6=O)CC4)CC3)c(C(F)(F)F)c2)cc1C#Cc1cnc2cccnn12 [GT-08352, N-(4-((4-((1-(2-(2,4-dioxotetrahydropyrimidin-1(2H)-yl)-1,3-dioxoisoindolin-5-yl)piperidin-4-yl)methyl)piperazin-1-yl)methyl)-3-(trifluoromethyl)phenyl)-3-(imidazo[1,2-b]pyridazin-3-ylethynyl)-4-methylbenzamide]",A (0%≤substrate protein remaining %≤80%),–,–,inhibition at 0.01 µM [2]: 15 to 20%; inhibition at 0.5 µM [2]: 20 to 30%; inhibition at 0.01 µM [3]: 30 to 40%; inhibition at 0.5 µM [3]: 80 to 100%
"Cc1ccc(C(=O)Nc2ccc(N3CCN(Cc4ccc5c(c4)C(=O)N(N4CCC(=O)NC4=O)C5=O)CC3)c(C(F)(F)F)c2)cc1C#Cc1cnc2cccnn12 [GT-08219, N-(4-(4-((2-(2,4-dioxotetrahydropyrimidin-1(2H)-yl)-1,3-dioxoisoindolin-5-yl)methyl)piperazin-1-yl)-3-(trifluoromethyl)phenyl)-3-(imidazo[1,2-b]pyridazin-3-ylethynyl)-4-methylbenzamide]",A (0%≤substrate protein remaining %≤80%),–,–,–
"Nc1nnc(-c2ccccc2O)cc1N1CCN(CC2CCN(c3cccc4c3C(=O)N(N3CCC(=O)NC3=O)C4=O)CC2)CC1 [GT-05070, 4-(4-((4-(3-amino-6-(2-hydroxyphenyl)pyridazin-4-yl)piperazin-1-yl)methyl)piperidin-1-yl)-2-(2,4-dioxotetrahydropyrimidin-1(2H)-yl)isoindoline-1,3-dione]",–,A (0%≤substrate protein remaining %≤80%),B (80%<substrate protein remaining %≤100%),–
"Nc1nnc(-c2cc(F)ccc2O)cc1N1CCN(Cc2ccc3c(c2)CN(N2CCC(=O)NC2=O)C3=O)CC1 [GT-05061, 1-(5-((4-(3-amino-6-(5-fluoro-2-hydroxyphenyl)pyridazin-4-yl)piperazin-1-yl)methyl)-1-oxoisoindolin-2-yl)dihydropyrimidine-2,4 (1H,3H)-dione]",–,A (0%≤substrate protein remaining %≤80%),B (80%<substrate protein remaining %≤100%),–
"Nc1nnc(-c2cc(F)ccc2O)cc1N1CCN(Cc2ccc3c(c2)C(=O)N(N2CCC(=O)NC2=O)C3=O)CC1 [GT-05072, 5-((4-(3-amino-6-(5-fluoro-2-hydroxyphenyl)pyridazin-4-yl)piperazin-1-yl)methyl)-2-(2,4-dioxotetrahydropyrimidin-1(2H)-yl)isoindoline-1,3-dione]",–,A (0%≤substrate protein remaining %≤80%),B (80%<substrate protein remaining %≤100%),–
"Nc1nnc(-c2ccccc2O)cc1N1CCN(Cc2ccc3c(c2)C(=O)N(N2CCC(=O)NC2=O)C3=O)CC1 [GT-05071, 5-((4-(3-amino-6-(2-hydroxyphenyl)pyridazin-4-yl)piperazin-1-yl)methyl)-2-(2,4-dioxotetrahydropyrimidin-1(2H)-yl)isoindoline-1,3-dione]",–,A (0%≤substrate protein remaining %≤80%),B (80%<substrate protein remaining %≤100%),–
"Nc1nnc(-c2cc(F)ccc2O)cc1N1CCN(CC2CCN(c3ccc4c(c3)C(=O)N(N3CCC(=O)NC3=O)C4=O)CC2)CC1 [GT-05068, 5-(4-((4-(3-amino-6-(5-fluoro-2-hydroxyphenyl)pyridazin-4-yl)piperazin-1-yl)methyl)piperidin-1-yl)-2-(2,4-dioxotetrahydropyrimidin-1(2H)-yl)isoindoline-1,3-dione]",–,A (0%≤substrate protein remaining %≤80%),B (80%<substrate protein remaining %≤100%),–

# Second part, led by results:
Degradation of substrate protein C-ABL; BCR-ABL (substrate protein remaining %) (C-ABL),Degradation of substrate protein BRM (substrate protein remaining %) (BRM),SMILES,Degradation of substrate protein BRG1 (substrate protein remaining %) (BRG1),other results
A (0%≤substrate protein remaining %≤80%),–,"O=C1CCN(N2C(=O)c3cccc(N4CCC(CN5CCC(N6CCN(c7ncc(C(=O)Nc8ccc(OC(F)(F)Cl)cc8)cc7-c7cc[nH]n7)CC6)CC5)CC4)c3C2=O)C(=O)N1 [GT-08359, N-(4-(chlorodifluoromethoxy)phenyl)-6-(4-(1-((1-(2-(2,4-dioxotetrahydropyrimidin-1(2H)-yl)-1,3-dioxoisoindolin-4-yl)piperidin-4-yl)methyl)piperidin-4-yl)piperazin-1-yl)-5-(1H-pyrazol-3-yl)nicotinamide]",–,inhibition at 0.01 µM [1]: 10 to 15%; inhibition at 0.5 µM [1]: 30 to 40%; inhibition at 0.01 µM [2]: 15 to 20%; inhibition at 0.5 µM [2]: 20 to 30%
A (0%≤substrate protein remaining %≤80%),–,"O=C1CCN(N2C(=O)c3cccc(N4CCC(CN5CCN(C6CCN(c7ncc(C(=O)Nc8ccc(OC(F)(F)Cl)cc8)cc7-c7cc[nH]n7)CC6)CC5)CC4)c3C2=O)C(=O)N1 [GT-08361, N-(4-(chlorodifluoromethoxy)phenyl)-6-(4-(4-((1-(2-(2,4-dioxotetrahydropyrimidin-1(2H)-yl)-1,3-dioxoisoindolin-4-yl)piperidin-4-yl)methyl)piperazin-1-yl)piperidin-1-yl)-5-(1H-pyrazol-3-yl)nicotinamide]",–,inhibition at 0.01 µM [2]: 20 to 30%; inhibition at 0.5 µM [2]: 20 to 30%
A (0%≤substrate protein remaining %≤80%),–,"O=C1CCN(N2C(=O)c3cccc(N4CCC(CN5CCN(c6ncc(C(=O)Nc7ccc(OC(F)(F)Cl)cc7)cc6-c6cc[nH]n6)CC5)CC4)c3C2=O)C(=O)N1 [GT-08357, N-(4-(chlorodifluoromethoxy)phenyl)-6-(4-((1-(2-(2,4-dioxotetrahydropyrimidin-1(2H)-yl)-1,3-dioxoisoindolin-4-yl)piperidin-4-yl)methyl)piperazin-1-yl)-5-(1H-pyrazol-3-yl)nicotinamide]",–,–
A (0%≤substrate protein remaining %≤80%),–,"O=C1CCN(N2C(=O)c3ccc(N4CCC(CN5CCC(N6CCN(c7ncc(C(=O)Nc8ccc(OC(F)(F)Cl)cc8)cc7-c7cc[nH]n7)CC6)CC5)CC4)cc3C2=O)C(=O)N1 [GT-08358, N-(4-(chlorodifluoromethoxy)phenyl)-6-(4-(1-((1-(2-(2,4-dioxotetrahydropyrimidin-1(2H)-yl)-1,3-dioxoisoindolin-5-yl)piperidin-4-yl)methyl)piperidin-4-yl)piperazin-1-yl)-5-(1H-pyrazol-3-yl)nicotinamide]",–,–
A (0%≤substrate protein remaining %≤80%),–,"O=C1CCN(N2C(=O)c3ccc(N4CCC(CN5CCN(c6ncc(C(=O)Nc7ccc(OC(F)(F)Cl)cc7)cc6-c6cc[nH]n6)CC5)CC4)cc3C2=O)C(=O)N1 [GT-08356, N-(4-(chlorodifluoromethoxy)phenyl)-6-(4-((1-(2-(2,4-dioxotetrahydropyrimidin-1(2H)-yl)-1,3-dioxoisoindolin-5-yl)piperidin-4-yl)methyl)piperazin-1-yl)-5-(1H-pyrazol-3-yl)nicotinamide]",–,inhibition at 0.01 µM [1]: 20 to 30%; inhibition at 0.5 µM [1]: 30 to 40%

# Reference: patent publication US20260364184A1, “COMPOUND BASED ON OXOISOINDOLINYL-SUBSTITUTED TETRAHYDROPYRIMIDINE-DIONE AND USE THEREOF” (GLUETACS THERAPEUTICS (SHANGHAI) CO., LTD., priority 2023, published 2026)
